Active and inactive are the calls of the source. No cut-off for these calls is given here.
Assays:
[1] = target: Hepatocyte growth factor receptor (Homo sapiens, UniProt P08581); experiment: Inhibition of recombinant human N-terminal GST-tagged MET (956 to 1390 residues) cytoplasmic domain expressed in baculovirus expression system using Srctide as substrate incubated for 1 hr by mobility shift assay
[2] = target: ALK tyrosine kinase receptor (Homo sapiens, UniProt Q9UM73, L1196M); experiment: Inhibition of recombinant human N-terminal GST-tagged ALK (1058 to 1620 residues) cytoplasmic domain L1196M mutant expressed in baculovirus expression system using srctide as substrate incubated for 1 hr by mobility shift assay
[3] = target: ALK tyrosine kinase receptor (Homo sapiens, UniProt Q9UM73); experiment: Inhibition of recombinant human N-terminal GST-tagged ALK (1058 to 1620 residues) cytoplasmic domain expressed in baculovirus expression system using srctide as substrate incubated for 1 hr by mobility shift assay
[4] = system: NCI-H2228; experiment: Antiproliferative activity against human NCI-H2228 cells assessed as reduction in cell viability incubated for 72 hrs by MTT assay; assay type: functional, cell-based; settings: NCI-H2228, 72 h
[5] = system: KARPAS-299; experiment: Antiproliferative activity against human KARPAS299 cells assessed as reduction in cell viability incubated for 72 hrs by MTT assay; assay type: functional, cell-based; settings: KARPAS-299, 72 h
[6] = system: HCC78; experiment: Antiproliferative activity against human HCC78 cells assessed as reduction in cell viability incubated for 72 hrs by MTT assay; assay type: functional, cell-based; settings: HCC78, 72 h
[7] = system: A549; experiment: Antiproliferative activity against human A549 cells harbouring […] mutant assessed as reduction in cell viability incubated for 72 hrs by MTT assay; assay type: functional, cell-based; settings: A549, 72 h
[8] = system: A549; experiment: Potency index, ratio of IC50 of ceritinib to IC50 of compound for antiproliferative activity against human A549 cells harbouring […] mutant assessed as reduction in cell viability incubated for 72 hrs by MTT assay; assay type: functional
[9] = target: Proto-oncogene tyrosine-protein kinase ROS (Homo sapiens, UniProt P08922); experiment: Inhibition of recombinant human N-terminal GST-tagged ROS (1883 to 2347 residues) cytoplasmic domain expressed in baculovirus expression system using IRS1 as substrate incubated for 1 hr by mobility shift assay
[10] = target: Epidermal growth factor receptor (Homo sapiens, UniProt P00533)
Description: Inhibition of recombinant human N-terminal GST-tagged EGFR (669 to 1210 residues) cytoplasmic domain expressed in baculovirus expression system using Srctide as substrate incubated for 1 hr by mobility shift assay

[11] = target: ALK tyrosine kinase receptor (Homo sapiens, UniProt Q9UM73, G1202R); experiment: Inhibition of recombinant human N-terminal GST-tagged ALK (1058 to 1620 residues) cytoplasmic domain G1202R mutant using srctide as substrate incubated for 1 hr by mobility shift assay
[12] = system: NCI-H2228; experiment: Induction of apoptosis in human NCI-H2228 cells assessed as increase in cell membrane damage incubated for 48 hrs by Hoechst 33258 staining based fluorescence microscopy; assay type: functional
[13] = system: NCI-H2228; experiment: Induction of apoptosis in human NCI-H2228 cells assessed as increase in nuclei damage incubated for 48 hrs by Hoechst 33258 staining based fluorescence microscopy; assay type: functional, cell-based
[14] = system: NCI-H2228; experiment: Induction of apoptosis in human NCI-H2228 cells assessed as increase in nuclear shrinkage incubated for 48 hrs by AO/EB staining based fluorescence microscopy; assay type: functional, cell-based
[15] = system: NCI-H2228; experiment: Induction of apoptosis in human NCI-H2228 cells assessed as increase in nuclear fragmentation incubated for 48 hrs by AO/EB staining based fluorescence microscopy; assay type: functional, cell-based
[16] = system: NCI-H2228; experiment: Induction of apoptosis in human NCI-H2228 cells assessed as increase in nuclear fragmentation at 30 nM incubated for 48 hrs by AO/EB staining based fluorescence microscopy; assay type: functional, cell-based
[17] = system: NCI-H2228; experiment: Induction of apoptosis in human NCI-H2228 cells assessed as increase in nuclear shrinkage at 30 nM incubated for 48 hrs by AO/EB staining based fluorescence microscopy; assay type: functional, cell-based
[18] = system: NCI-H2228; experiment: Induction of apoptosis in human NCI-H2228 cells assessed as increase in cell membrane damage at 30 nM incubated for 48 hrs by Hoechst 33258 staining based fluorescence microscopy; assay type: functional
[19] = system: NCI-H2228; experiment: Induction of apoptosis in human NCI-H2228 cells assessed as increase in nuclei damage at 30 nM incubated for 48 hrs by Hoechst 33258 staining based fluorescence microscopy; assay type: functional, cell-based
[20] = system: A549; experiment: cells; settings: Homo sapiens, A549, 72 h
[21] = system: HT-29; experiment: cells; settings: Homo sapiens, HT-29, 72 h
Description: Antiproliferative activity against human HT-29 cells assessed as reduction in cell viability incubated for 72 hrs by MTT assay

Chain of ALK tyrosine kinase receptor (Homo sapiens, UniProt Q9UM73, G1202R) (Q9UM73 19-1620 G1202R limits assumed): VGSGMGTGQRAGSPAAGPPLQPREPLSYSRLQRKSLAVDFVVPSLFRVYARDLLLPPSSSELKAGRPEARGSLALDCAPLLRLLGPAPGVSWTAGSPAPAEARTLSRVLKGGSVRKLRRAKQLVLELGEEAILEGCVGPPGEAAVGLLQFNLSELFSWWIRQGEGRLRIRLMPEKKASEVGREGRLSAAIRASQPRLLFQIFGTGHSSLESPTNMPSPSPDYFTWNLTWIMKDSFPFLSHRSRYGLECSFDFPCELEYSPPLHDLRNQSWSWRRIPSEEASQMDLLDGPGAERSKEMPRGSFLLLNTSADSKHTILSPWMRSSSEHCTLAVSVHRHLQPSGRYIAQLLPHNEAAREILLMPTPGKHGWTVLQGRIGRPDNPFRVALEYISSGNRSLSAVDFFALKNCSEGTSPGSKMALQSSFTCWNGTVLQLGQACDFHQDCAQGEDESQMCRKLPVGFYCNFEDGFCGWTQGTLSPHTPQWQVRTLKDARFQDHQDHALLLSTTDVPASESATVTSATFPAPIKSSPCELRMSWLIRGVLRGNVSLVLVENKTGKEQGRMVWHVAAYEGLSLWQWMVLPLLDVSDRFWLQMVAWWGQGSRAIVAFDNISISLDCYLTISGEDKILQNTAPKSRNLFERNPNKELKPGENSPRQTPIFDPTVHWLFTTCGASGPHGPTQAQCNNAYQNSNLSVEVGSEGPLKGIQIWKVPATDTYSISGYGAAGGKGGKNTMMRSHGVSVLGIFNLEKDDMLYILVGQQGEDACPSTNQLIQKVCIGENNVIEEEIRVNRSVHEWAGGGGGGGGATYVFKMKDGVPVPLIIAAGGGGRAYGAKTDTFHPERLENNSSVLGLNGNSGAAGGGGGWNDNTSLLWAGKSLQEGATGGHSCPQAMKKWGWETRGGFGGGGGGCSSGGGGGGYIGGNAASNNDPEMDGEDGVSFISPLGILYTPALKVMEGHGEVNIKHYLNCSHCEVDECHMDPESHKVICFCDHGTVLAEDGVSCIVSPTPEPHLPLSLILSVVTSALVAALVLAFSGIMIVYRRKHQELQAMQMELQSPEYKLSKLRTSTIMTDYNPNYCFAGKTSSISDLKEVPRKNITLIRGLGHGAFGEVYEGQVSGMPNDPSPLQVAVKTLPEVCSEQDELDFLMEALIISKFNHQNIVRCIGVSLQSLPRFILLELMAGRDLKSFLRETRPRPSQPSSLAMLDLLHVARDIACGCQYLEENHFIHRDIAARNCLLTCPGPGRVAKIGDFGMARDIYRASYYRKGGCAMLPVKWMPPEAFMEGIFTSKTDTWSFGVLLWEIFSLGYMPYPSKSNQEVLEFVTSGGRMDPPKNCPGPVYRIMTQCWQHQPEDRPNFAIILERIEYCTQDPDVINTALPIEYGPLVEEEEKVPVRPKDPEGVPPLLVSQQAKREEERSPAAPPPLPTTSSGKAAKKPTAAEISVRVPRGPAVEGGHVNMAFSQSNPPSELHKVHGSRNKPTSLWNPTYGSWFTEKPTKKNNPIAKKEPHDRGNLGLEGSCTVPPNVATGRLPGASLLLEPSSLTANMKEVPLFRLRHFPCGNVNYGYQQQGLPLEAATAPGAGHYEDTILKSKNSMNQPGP
Chain of ALK tyrosine kinase receptor (Homo sapiens, UniProt Q9UM73, L1196M) (Q9UM73 19-1620 L1196M limits assumed): as the sequence (Q9UM73 19-1620 G1202R limits assumed) above, with L1178M, R1184G counted along it
Chain of ALK tyrosine kinase receptor (Homo sapiens, UniProt Q9UM73) (Q9UM73 whole entry, the tested form may be a part): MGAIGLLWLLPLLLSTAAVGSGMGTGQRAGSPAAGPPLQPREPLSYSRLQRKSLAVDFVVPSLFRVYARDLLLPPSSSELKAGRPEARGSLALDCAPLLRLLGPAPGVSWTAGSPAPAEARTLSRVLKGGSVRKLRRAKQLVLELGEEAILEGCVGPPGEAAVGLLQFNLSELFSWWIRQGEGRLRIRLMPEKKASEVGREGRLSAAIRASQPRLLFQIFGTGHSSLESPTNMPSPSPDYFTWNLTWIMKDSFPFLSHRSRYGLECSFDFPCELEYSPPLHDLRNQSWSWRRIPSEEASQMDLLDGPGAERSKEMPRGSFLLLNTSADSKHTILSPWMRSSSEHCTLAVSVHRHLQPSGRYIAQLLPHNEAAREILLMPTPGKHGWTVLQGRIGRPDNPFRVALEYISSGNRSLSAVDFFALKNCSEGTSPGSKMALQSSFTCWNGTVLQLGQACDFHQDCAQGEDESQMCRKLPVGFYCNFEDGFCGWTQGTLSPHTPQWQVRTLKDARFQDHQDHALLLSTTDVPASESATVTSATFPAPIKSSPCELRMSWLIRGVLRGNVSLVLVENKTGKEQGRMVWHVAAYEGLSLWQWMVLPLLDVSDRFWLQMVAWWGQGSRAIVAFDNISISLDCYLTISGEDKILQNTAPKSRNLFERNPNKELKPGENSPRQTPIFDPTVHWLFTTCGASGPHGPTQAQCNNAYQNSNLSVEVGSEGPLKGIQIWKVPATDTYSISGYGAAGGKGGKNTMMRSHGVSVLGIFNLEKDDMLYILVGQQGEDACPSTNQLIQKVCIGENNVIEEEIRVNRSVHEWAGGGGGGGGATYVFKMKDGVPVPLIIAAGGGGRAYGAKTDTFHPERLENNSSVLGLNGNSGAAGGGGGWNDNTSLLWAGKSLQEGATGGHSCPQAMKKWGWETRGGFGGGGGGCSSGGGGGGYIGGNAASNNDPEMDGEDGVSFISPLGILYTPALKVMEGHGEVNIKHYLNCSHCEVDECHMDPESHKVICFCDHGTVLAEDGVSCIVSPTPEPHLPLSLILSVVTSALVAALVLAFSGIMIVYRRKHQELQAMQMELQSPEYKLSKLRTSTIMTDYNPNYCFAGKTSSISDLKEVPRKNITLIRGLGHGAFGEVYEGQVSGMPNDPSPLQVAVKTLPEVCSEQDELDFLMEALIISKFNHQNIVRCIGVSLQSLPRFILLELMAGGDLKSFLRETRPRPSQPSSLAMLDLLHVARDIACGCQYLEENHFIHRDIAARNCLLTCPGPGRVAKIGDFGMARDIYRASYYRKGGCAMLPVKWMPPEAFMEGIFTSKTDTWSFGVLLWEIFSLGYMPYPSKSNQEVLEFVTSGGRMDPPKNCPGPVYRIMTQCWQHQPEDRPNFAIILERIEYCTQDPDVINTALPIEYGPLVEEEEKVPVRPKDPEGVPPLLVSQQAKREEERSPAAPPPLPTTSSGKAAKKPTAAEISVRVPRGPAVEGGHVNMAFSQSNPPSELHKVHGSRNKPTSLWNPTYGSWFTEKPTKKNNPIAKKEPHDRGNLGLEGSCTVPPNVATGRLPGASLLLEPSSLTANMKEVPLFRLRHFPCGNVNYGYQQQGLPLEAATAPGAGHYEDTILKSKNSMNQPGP
Chain of Epidermal growth factor receptor (P00533 whole entry, the tested form may be a part): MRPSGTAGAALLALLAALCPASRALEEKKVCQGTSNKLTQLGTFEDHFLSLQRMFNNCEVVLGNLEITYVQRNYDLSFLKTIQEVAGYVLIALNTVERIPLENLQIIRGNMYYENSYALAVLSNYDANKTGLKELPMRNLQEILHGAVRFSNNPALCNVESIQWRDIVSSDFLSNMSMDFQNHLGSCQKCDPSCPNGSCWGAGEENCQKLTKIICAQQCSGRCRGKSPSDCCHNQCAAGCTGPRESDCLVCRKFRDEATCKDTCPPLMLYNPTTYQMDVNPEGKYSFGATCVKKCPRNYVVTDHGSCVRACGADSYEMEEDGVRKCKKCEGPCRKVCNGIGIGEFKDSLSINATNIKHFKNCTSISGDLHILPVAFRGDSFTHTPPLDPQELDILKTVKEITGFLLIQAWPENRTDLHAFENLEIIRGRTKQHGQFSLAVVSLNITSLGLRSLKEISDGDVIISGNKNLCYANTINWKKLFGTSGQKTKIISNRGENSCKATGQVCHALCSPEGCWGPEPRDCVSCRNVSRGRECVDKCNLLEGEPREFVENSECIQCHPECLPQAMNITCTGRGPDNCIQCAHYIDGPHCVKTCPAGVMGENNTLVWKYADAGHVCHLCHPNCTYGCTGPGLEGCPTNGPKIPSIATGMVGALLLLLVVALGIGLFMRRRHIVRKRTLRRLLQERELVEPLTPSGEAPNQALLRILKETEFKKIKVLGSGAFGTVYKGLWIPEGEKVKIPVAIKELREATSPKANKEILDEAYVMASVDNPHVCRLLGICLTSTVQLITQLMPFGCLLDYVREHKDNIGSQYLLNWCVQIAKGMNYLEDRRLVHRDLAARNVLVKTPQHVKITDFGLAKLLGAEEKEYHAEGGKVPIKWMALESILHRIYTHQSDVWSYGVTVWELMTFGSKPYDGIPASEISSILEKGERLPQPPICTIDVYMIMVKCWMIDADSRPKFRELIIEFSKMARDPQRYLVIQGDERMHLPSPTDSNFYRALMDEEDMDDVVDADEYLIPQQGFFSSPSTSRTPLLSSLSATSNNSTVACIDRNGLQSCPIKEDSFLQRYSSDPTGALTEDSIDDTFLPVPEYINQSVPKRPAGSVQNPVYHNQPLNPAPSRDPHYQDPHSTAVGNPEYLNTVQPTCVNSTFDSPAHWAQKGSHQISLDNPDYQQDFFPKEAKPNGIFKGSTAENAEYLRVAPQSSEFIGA

`COc1cc(NC(=O)N2CCOCC2)ccc1Nc1ncc(Cl)c(Nc2ccccc2NC(C)=O)n1` was tested, and the IC50 [1] was > 1000 nM, the IC50 [2] was 0.91 nM and the IC50 [3] was 2.1 nM. The IC50 [4] was 56 nM, the IC50 [5] was 27 nM and the IC50 [6] was 41 nM. The IC50 [7] was 30 nM, the “Ratio IC50” value [8] was 16.5 and the IC50 [9] was 0.73 nM. For the same compound, the IC50 [10] was > 1000 nM, the IC50 [11] was 4.3 nM and the Activity [12] was “Dose-dependent effect”. For the same compound, the Activity [13] was “Dose-dependent effect”, the Activity [14] was “Dose-dependent effect” and the Activity [15] was “Dose-dependent effect”. For the same compound, the Activity [16] was “Active”, the Activity [17] was “Active” and the Activity [18] was “Active”. For the same compound, the Activity [19] was “Active”, the IC50 [20] was 1610 nM and the IC50 [21] was > 10000 nM.
For `COc1cc(NC(=O)N2CCCC2)ccc1Nc1ncc(Cl)c(Nc2ccccc2NC(C)=O)n1`, the IC50 [1] was > 1000 nM, the IC50 [2] was 3.7 nM and the IC50 [3] was 5.1 nM. The IC50 [4] was 79 nM, the IC50 [5] was 160 nM and the IC50 [6] was 870 nM. The IC50 [7] was 360 nM, the IC50 [9] was 0.97 nM and the IC50 [10] was > 1000 nM. The IC50 [11] was 7.1 nM, the IC50 [20] was > 10000 nM and the IC50 [21] was 1270 nM.
For `COc1cc(N2CCCC2=O)ccc1Nc1ncc(Cl)c(Nc2ccccc2NC(C)=O)n1`, the IC50 [1] was 532 nM, the IC50 [2] was 2.9 nM and the IC50 [3] was 6.2 nM. The IC50 [4] was 220 nM, the IC50 [5] was 220 nM and the IC50 [6] was 97 nM. For the same compound, the IC50 [7] was 410 nM, the IC50 [9] was 4.4 nM and the IC50 [10] was > 1000 nM. For the same compound, the IC50 [11] was 15.7 nM, the IC50 [20] was 4130 nM and the IC50 [21] was 1530 nM.

Reference: ChEMBL document CHEMBL4396963, “An exploration of solvent-front region high affinity moiety leading to novel potent ALK & ROS1 dual inhibitors with mutant-combating effects” (Bioorg Med Chem, 2019)
